Where a SMILES comes first, the peptide text is derived from it. [ ]: non-standard residue; d: D form. The star is where a group is joined. Nle(5E-ene,6-CO2Et) = CCOC(=O)/C=C/CC[C@H](N)C(=O)O; Cbz = O=C(OCc1ccccc1)*
How the values were obtained:
Format in all cases: biochemical
FXIII = target: T1, FXIII (Homo sapiens, UniProt P00488); test: Transglutaminase inhibition, IC50 at FXIII
T1 sequence (P00488 1-732): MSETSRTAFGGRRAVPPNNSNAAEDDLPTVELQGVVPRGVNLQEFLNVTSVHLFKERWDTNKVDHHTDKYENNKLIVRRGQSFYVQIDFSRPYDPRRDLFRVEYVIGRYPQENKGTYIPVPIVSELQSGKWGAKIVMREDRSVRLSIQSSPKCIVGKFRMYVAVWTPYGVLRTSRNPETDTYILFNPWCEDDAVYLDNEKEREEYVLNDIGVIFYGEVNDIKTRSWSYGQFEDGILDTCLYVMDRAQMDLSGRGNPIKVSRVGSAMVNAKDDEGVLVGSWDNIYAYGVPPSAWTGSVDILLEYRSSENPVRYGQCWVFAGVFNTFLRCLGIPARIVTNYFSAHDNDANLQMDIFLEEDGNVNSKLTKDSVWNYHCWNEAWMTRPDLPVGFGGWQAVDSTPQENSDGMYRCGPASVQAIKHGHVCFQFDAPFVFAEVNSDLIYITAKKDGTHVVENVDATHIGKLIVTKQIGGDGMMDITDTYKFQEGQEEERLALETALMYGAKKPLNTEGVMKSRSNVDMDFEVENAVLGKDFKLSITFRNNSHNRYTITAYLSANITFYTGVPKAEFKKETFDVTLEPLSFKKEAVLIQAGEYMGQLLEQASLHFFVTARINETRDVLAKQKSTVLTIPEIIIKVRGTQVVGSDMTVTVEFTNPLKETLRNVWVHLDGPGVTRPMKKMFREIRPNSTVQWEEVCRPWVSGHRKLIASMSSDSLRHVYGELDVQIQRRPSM

[1] = target: T2, recombinant human tissue transglutaminase (His6-rh-TG2) (Homo sapiens, UniProt P21980); test: Inactivation of human tissue transglutaminase, fluorescence assay, IC50; settings: 5 min preincubation, 37° C.
T2 sequence (P21980 1-687): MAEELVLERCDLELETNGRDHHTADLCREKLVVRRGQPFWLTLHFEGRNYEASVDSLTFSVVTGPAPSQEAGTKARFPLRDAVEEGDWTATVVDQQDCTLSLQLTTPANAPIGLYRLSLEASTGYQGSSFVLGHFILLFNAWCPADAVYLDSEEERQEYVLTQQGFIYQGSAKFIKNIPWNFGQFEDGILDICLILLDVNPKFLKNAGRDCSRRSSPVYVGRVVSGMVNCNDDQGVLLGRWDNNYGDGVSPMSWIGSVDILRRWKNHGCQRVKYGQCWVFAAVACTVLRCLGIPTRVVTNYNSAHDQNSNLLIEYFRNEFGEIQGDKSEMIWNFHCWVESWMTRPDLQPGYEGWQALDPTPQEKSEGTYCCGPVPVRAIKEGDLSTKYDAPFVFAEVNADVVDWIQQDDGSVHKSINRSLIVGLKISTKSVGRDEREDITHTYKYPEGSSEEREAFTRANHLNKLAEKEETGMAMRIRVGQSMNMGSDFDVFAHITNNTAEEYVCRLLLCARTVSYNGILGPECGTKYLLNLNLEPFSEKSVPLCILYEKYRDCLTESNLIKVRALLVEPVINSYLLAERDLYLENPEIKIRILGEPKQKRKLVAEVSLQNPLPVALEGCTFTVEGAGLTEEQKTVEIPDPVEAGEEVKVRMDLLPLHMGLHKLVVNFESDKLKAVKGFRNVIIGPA
Experimental: 250 μg of lyophilized his-tagged recombinant human tissue transglutaminase (His6-rh-TG2) are reconstituted by the addition of 150 μl of water (resulting buffer 50 mM of NaH2PO4, 150 mM of NaCl, pH=8).
A 10 mM inhibitor stock solution in DMSO is prepared and diluted with buffer (50 mM of Tris-HCl, 10 mM of CaCl2, 5 mM of DTT, pH=7.5, respectively) to the 20-fold of the concentration desired for the inhibition mixture (at least 1/50 dilution resulting in 2% DMSO concentration).
900 μl of an assay solution composed of 55.56 mM of Tris, 11.11 mM of CaCl2, 0.11% PEG8000, 5.56 mM of DTT, 5.56 mM of glycine methyl ester and 50 μM of Abz-APE(CAD-DNP)QEA-OH, (patent number:), pH=7.5 are placed in a cuvette and brought to a temperature of 37° C. in the measuring cell of a spectrophotometer. 50 μl of the respective inhibitor solution are added to said solution (resulting in a concentration of less than 0.2% of DMSO in the mixture).
7 μl of the transglutaminase solution reconstituted above are diluted with 51 μl of buffer (50 mM of Tris, 100 mM of NaCl, 5 mM of DTT, pH=7.5). 50 μl of said enzyme solution (10 μg His6-rhTG2) are added to the assay solution containing the respective inhibitor concentration. The mixture is incubated for 5 min at 37° C. before the measurement is performed. λexc=313 nm and λem=418 nm, 15 min)
The resulting enzyme activity was measured by analyzing the slope of the straight line obtained by the increase in fluorescence.
DMSO is used instead of inhibitor stock solution in order to determine the non-inhibited enzyme activity. IC50 values are determined by plotting the resulting enzyme activity against the logarithm of the inhibitor concentration. IC50 is defined as the concentration of an inhibitor at which enzyme activity is reduced to 50% after 5 min of preincubation.

TG1 = target: T3, TG1 (Homo sapiens, UniProt P22735); test: Transglutaminase inhibition, IC50 at TG1
T3 sequence (P22735 1-817): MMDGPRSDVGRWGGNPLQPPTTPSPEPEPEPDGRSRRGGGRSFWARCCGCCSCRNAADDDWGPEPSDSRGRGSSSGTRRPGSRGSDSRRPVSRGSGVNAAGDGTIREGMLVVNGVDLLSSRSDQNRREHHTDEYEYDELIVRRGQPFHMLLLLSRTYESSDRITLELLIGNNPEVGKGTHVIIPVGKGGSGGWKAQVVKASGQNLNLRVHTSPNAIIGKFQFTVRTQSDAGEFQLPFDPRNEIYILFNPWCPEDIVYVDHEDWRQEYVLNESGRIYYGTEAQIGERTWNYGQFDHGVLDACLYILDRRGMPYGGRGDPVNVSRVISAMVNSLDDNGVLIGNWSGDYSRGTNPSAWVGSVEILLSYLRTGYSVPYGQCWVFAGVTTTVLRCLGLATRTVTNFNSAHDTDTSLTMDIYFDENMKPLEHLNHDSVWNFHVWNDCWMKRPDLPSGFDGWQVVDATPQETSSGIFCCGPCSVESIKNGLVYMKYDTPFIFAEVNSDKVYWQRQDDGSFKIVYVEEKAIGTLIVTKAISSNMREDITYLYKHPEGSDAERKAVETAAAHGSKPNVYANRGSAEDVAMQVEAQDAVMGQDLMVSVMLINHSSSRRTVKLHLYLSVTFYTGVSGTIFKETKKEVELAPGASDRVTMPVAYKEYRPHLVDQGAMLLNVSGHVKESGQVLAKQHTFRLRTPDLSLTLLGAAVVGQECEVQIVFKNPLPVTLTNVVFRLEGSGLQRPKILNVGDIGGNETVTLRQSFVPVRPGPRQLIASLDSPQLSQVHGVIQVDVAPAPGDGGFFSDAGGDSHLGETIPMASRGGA

Row | Structure (SMILES) | IC50 (FXIII; Table 1) [µM] | IC50 ([1]; Table 1) [µM] | IC50 (TG1; Table 1) [µM] | IC50 (FXIII; Table 2) [µM] | IC50 ([1]; Table 2) [µM] | IC50 (TG1; Table 2) [µM]
1 | CCOC(=O)/C=C/CC[C@H](NC(=O)OCc1ccccc1)C(=O)N[C@@H](CCC(N)=O)C(=O)N1CCC[C@H]1C(=O)N[C@@H](CC(C)C)C(=O)OC [Compound 2, N^α-benzyloxycarbonyl-{[(E)-(L)-6-amino-hept-2-ene-dicarboxylic acid]-1-ethanoyl}-L-glutaminyl-L-prolinyl-L-leucine methyl ester] (Cbz-[Nle(5E-ene,6-CO2Et)]QPL-OMe) | > 50 | 0.02 | – | – | – | –
2 | CCOC(=O)/C=C/CC[C@H](NC(=O)OCc1ccccc1)C(=O)N[C@@H](Cc1ccccc1)C(=O)OC [Compound 3, N^α-benzyloxycarbonyl-{[(E)-(L)-6-amino-hept-2-ene-dicarboxylic acid]-1-ethanoyl}-L-phenylalanine methyl ester] | 2.5 | 8 | 0.2 | – | – | –
3 | COC(=O)[C@H](CC(C)C)NC(=O)[C@@H]1CCCN1C(=O)[C@H](CCC(N)=O)NC(=O)[C@H](CC/C=C/S(C)(=O)=O)NC(=O)OCc1ccccc1 [Compound 3.2.1, N^α-benzyloxycarbonyl-{[(E)-(L)-2-amino-6-methanesulfonyl]-hex-5-enyl}-L-glutaminyl-L-prolinyl-L-leucine methyl ester] | – | – | – | > 100 | 0.054 | 0.25
4 | COC(=O)[C@H](CC(C)C)NC(=O)[C@@H]1CCCN1C(=O)[C@H](CCC(N)=O)NC(=O)[C@H](CC/C=C/S(=O)(=O)N(C)C)NC(=O)OCc1ccccc1 [Compound 3.2.2] | – | – | – | > 100 | 0.76 | 1.3
5 | COC(=O)[C@H](CC(C)C)NC(=O)[C@@H]1CCCN1C(=O)[C@H](CCC(N)=O)NC(=O)[C@H](CCC1=CC(=O)CC1)NC(=O)OCc1ccccc1 [Compound 3.2.3, N^α-benzyloxycarbonyl-[(L)-2-amino-4-(3)-oxo-cyclopent-1-enyl]-butyryl-L-glutaminyl-L-prolinyl-L-leucine methyl ester] | – | – | – | > 100 | 18 | 14
6 | COC(=O)[C@H](CC(C)C)NC(=O)[C@@H]1CCCN1C(=O)[C@H](CCC(N)=O)NC(=O)[C@H](CC/C=C1\CCOC1=O)NC(=O)OCc1ccccc1 [Compound 3.2.4, N^α-benzyloxycarbonyl[(L)-2-amino-5-(2-oxo-dihydrofurane-(3E)-ylidene)]-pentanoyl-L-glutaminyl-L-prolinyl-L-Ieucine methyl ester] | – | – | – | > 100 | 8.9 | 0.4
7 | COC(=O)C(CC(C)C)NC(=O)C1CCCN1C(=O)C(CCC(N)=O)NC(=O)C(CCC=CC(=O)O)NC(=O)OCc1ccccc1 [Compound 3.2.5, N^α-benzyloxycarbonyl)-[(E)-(L)-6-amino-hept-2-ene-dicarboxylic acid]-L-glutaminyl-L-prolinyl-L-leucine methyl ester] | – | – | – | > 100 | 23 | –

Further lines, results first:

Row | IC50 (FXIII; Table 1) [µM] | IC50 ([1]; Table 1) [µM] | IC50 (TG1; Table 1) [µM] | IC50 (FXIII; Table 2) [µM] | IC50 ([1]; Table 2) [µM] | IC50 (TG1; Table 2) [µM] | Structure (SMILES)
8 | – | – | – | > 100 | > 100 | 23 | CCCCCNC(=O)/C=C/CC[C@H](NC(C)=O)C(=O)N[C@@H](CCC(N)=O)C(=O)N[C@@H](CC(=O)O)C(=O)N1CCC[C@H]1C(=O)OC [Compound 3.2.6, Nr-acetyl-{[(E)-(L)-6.amino-hept-2-ene-dicarboxylic acid]-1-pentylamido}-L-glutaminyl-L-asparatyl-L-proline methyl ester]
9 | – | – | – | > 100 | 1.5 | 3.7 | CC(C)OC(=O)C=CCCC(NC(=O)OCc1ccccc1)C(=O)NC(Cc1ccc(F)cc1)C(=O)N1CCCC1C(=O)O [Compound 3.2.7, N^α-benzyloxycarbonyl)-{[(E)-(L)-6-amino-hept-2-ene-dicarboxylic acid]-1-isopropanoyl}-L-(p-fluoro-phenylalaninyl)-L-proline]
10 | – | – | – | > 100 | 0.13 | 0.825 | CC(C)CC(NC(=O)C1CCCCN1C(=O)C(Cc1ccccc1)NC(=O)C(CCC=CC(=O)OCc1ccccc1)NC(=O)OCc1ccccc1)C(N)=O [Compound 3.2.8, N^α-benzyloxycarbonyl)-{[(E)-(L)-6-amino-hept-2-ene-dicarboxylic acid]-1-benzoyl}-L-phenylalaninyl-L-homoprolinyl-L-leucinyl amide]
11 | – | – | – | > 100 | 3.8 | 0.53 | CCOC(=O)C(=O)/C=C/CC[C@H](NC(=O)OCc1ccccc1)C(=O)N[C@@H](Cc1ccccc1)C(=O)OC [Compound 3.2.9]
12 | > 50 | 0.35 | – | – | – | – | COC(=O)/C=C/CC[C@H](NC(=O)OCc1ccccc1)C(=O)N[C@@H](CCC(N)=O)C(=O)N1CCC[C@H]1C(=O)OC [Compound 4, N^α-benzyloxycarbonyl-{[(E)-(L)-6-amino-hept-2-ene-dicarboxylic acid]-1-methanoyl}-L-glutaminyl-L-proline methyl ester]
13 | > 50 | 0.125 | – | – | – | – | CCOC(=O)/C=C/CC[C@H](NC(=O)OCc1ccccc1)C(=O)N[C@H](C(=O)N1CCC[C@H]1C(=O)NCCC(C)C)C(C)C [Compound 5]
14 | > 50 | 15 | – | – | – | – | CCOC(=O)/C=C/CC[C@@H](C(=O)N[C@H](C(=O)N1CCC[C@H]1C(=O)OC)C(C)C)N1CCCC1=O [Compound 6, [(E)-(L)-6-(2-oxo-pyrrolidon-1-yl)-hept-2-ene-dicarboxylic acid 1-ethanoyl]-L-valinyl-L-proline methyl ester]
